According to patent publication US20240209353A1, “NADK2 INHIBITION IN CANCER AND FIBROTIC DISORDERS” (Memorial Sloan-Kettering Cancer Center, priority 2021, published 2024):
Where “and” joins values, the source holds several entries; their conditions need not be identical. Identical values can stand only once.

Tested on: immunopurified mitochondria of DLD1-OMP25HA cells
Assay: LC-MS metabolomic profiling, Mito-IP samples
Format: cell-based, human
Protocol: Rapid immunopurification of mitochondria was performed following the published methodology (4). In brief, cells with control or NADK2 knockout were engineered to express the HA-tagged OMP25 protein (Addgene, 83356); or in the case of FIG. 5E, parental DLD1 cells were engineered to express the HA-tagged OMP25 protein or the Myc-tagged OMP25 protein (Addgene, 83355), 30 million cells were washed and dounce homogenized in KPBS (136 mM KCl and 10 mM KH2PO4, pH 7.25). The homogenate was then cleared by centrifugation and the supernatant was applied to anti-HA beads (Thermo Fisher, 88837) and incubated with rotation for 3.5 min. The resultant beads were washed with KPBS and were eluted for different downstream analyses: Triton X-100 lysis buffer (50 mM Tris-HCl, pH 7.4, 150 mM NaCl, 1 mM EDTA, 1% (vol/vol) Triton X-100, and protease inhibitors) was used to elute mitochondria for Western blot analysis; 80:20 methanol:water containing 1.5 μM ^13C^15N labeled amino acids (Cambridge Isotope Laboratories, MSK-A2-1.2) was used to elute mitochondria for liquid chromatography-mass spectrometry (LC-MS) analysis; 80:20 methanol:water was used to elute mitochondria for NAD(H) and NADP(H) measurements; glutathione lysis buffer (see below) was used to elute mitochondria for GSH measurements.
For negative ionization mode liquid chromatography separation was achieved on an iHILIC-(P) Classic column (100 mm×2.1 mm, 5 μm particle size, HILICON). Mobile phase A was 10 mM ammonium bicarbonate in 10:90 acetonitrile:water with 5 μM medronic acid, pH 9.4 and mobile phase B was 10 mM ammonium bicarbonate in 90:10 acetonitrile:water with 5 μM medronic acid, pH 9.4). The gradient was 0 min, 95% B; 15 min, 50% B; 18 min, 50% B; 19 min, 95% B; 19.10 min, 95% B; 25.5 min, 95% B; 2 mins posttime. Other LC parameters were: flow rate: 200 μL/min; column temperature: 40° C., and injection volume was 2 μL. MS parameters were: gas temp: 300° C.; gas flow: 10 L/min; nebulizer pressure: 40 psig; sheath gas temp: 350° C.; sheath gas flow: 12 L/min; VCap: 3,000 V; fragmentor: 125 V. Data were acquired from m/z 50-1700 with active reference masses correction (m/z: 121.05087 and 922.00980 (positive mode) or m/z: 119.03632 and 980.01638 (negative mode). Peak identification and integration were done based on in-house exact mass and retention time library built from commercial standards. Data analysis and natural isotope abundance correction were performed using MassHunter Profinder software v10.0 (Agilent Technologies).
For metabolomic profiling of the Mito-IP samples, dried extracts were resuspended in 30 μL of 60:40 acetonitrile:water and an additional 7.5 μL of 100% methanol added to prevent phase separation. Samples were vortexed, incubated on ice for 20 min, and clarified by centrifugation at 20,000 g for 20 min at 4° C. LC-MS analysis was using the iHILIC-(P) Classic negative method described with 6545 Q-TOF mass spectrometer (Agilent Technologies). Whole cell extracts were analyzed in parallel and data analysis was performed using MassHunter Profinder v10.0 software (Agilent Technologies). Metabolite identifications reported were based on either (a) exact mass and retention times matched to authentic standards (denoted as RT in Tables 1A-1G) or (b) exact mass and MS2 spectra match using SIRIUS software (denoted as MS2 in Tables 1A-1G) (https://bio.informatik.uni-jena.de/software/sirius/). Metabolites were considered to be mitochondrial if the average peak area measured in anti-HA Mito-IPs from HA-tagged OMP25 cells was at least 1.5-fold more than in anti-HA Mito-IPs from the control cell expressing Myc-tagged OMP25 (scc Tables 1A-1G; FC>1.5 for [OMP25HA sgCtrl MitoIP vs. OMP25Myc MitoIP]).

[1] = DLD1-OMP25HA sgCtrl + Piericidin MitoIP, 5 μM 2 hours, rep01-rep03

C/C=C(\C)[C@H](O)[C@H](C)/C=C(C)/C=C/C/C(C)=C/Cc1nc(OC)c(OC)c(O)c1C [piericidin]
2-aminoadipate level [1]: 62966 and 65899 and 79200
3-hydroxy-3-methylglutarate level [1]: 65452 and 77263 and 90857
3-hydroxyhexadecanoate level [1]: 154313 and 165893 and 273073
alpha-ketoglutarate level [1]: 36956 and 33481 and 64213
carbamoyl aspartate level [1]: 61946 and 44834 and 50496
citrate level [1]: 2652773 and 2956510 and 3197992
dodecanoate level [1]: 117632035 and 108567664 and 182339246
galactonic acid level [1]: 79663 and 109571 and 76436
glutamine level [1]: 58654 and 57894 and 67465
glutathione, reduced (GSH) level [1]: 5666886 and 8127441 and 4704089
lactate level [1]: 2355878 and 2582709 and 1383509
malate level [1]: 78861 and 87997 and 101969
methylmalonate level [1]: 49637 and 60988 and 87945
methylthioribulose 1-phosphate level [1]: 78919 and 79663 and 140471
nicotinamide adenine dinucleotide, reduced (NADH) level [1]: 3526961 and 3705811 and 4542289
oleate level [1]: 3976796 and 4283346 and 4070066
palmitate level [1]: 58619197 and 59278003 and 34887756
pentadecanoic acid level [1]: 988055 and 823203 and 616849
phenylacetate level [1]: 206078 and 155618 and 258772
phosphoglycolic acid level [1]: 12625 and 17645 and 24712
succinate level [1]: 32755 and 39006 and 43999
taurine level [1]: 3028424 and 3328577 and 3010797
uridine 5′-monophosphate (UMP) level [1]: 149496 and 116561 and 209899
glutamate and NADH levels in the mitochondria (sgCtrl DLD1-OMP25HA cells, 5 μM piericidin for 2 hours before Mito-IP): increased
